# Several values for one entry are separate records, joined by “and”; a condition that tells them apart may be missing. Equal entries are not always repeated.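 Protocol summary: plate cells (96-well), add compound at 5 concentrations, incubate 48 h, interpolate endpoints linearly. Here, GI50 denotes the concentration required for 50% inhibition of growth. At the TGI there is no net growth.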
# How the values were obtained:
# Test in all cases: NCI tumour cell line growth inhibition, 48 h
# COLO 205 colon = test system: COLO 205 colon
# A549 NSCLC = test system: A549 NSCLC
# UACC-62 melanoma = test system: UACC-62 melanoma
# NCI-H522 lung = test system: NCI-H522 lung
# CCRF-CEM leukemia = test system: CCRF-CEM leukemia
# SNB-75 CNS = test system: SNB-75 CNS
# HOP-62 NSCLC = test system: HOP-62 NSCLC
# SF-539 CNS = test system: SF-539 CNS
# UO-31 renal = test system: UO-31 renal
# MOLT-4 leukemia = test system: MOLT-4 leukemia
SMILES,GI50 (COLO 205 colon),TGI (COLO 205 colon) [µM],GI50 (A549 NSCLC),TGI (A549 NSCLC) [µM],GI50 (UACC-62 melanoma) [µM],TGI (UACC-62 melanoma) [µM],GI50 (NCI-H522 lung),TGI (NCI-H522 lung) [µM],GI50 (CCRF-CEM leukemia) [µM],TGI (CCRF-CEM leukemia) [µM],GI50 (SNB-75 CNS) [µM],TGI (SNB-75 CNS) [µM],GI50 (HOP-62 NSCLC) [µM],TGI (HOP-62 NSCLC) [µM],GI50 (SF-539 CNS),TGI (SF-539 CNS) [µM],GI50 (UO-31 renal) [µM],TGI (UO-31 renal) [µM],GI50 (MOLT-4 leukemia) [µM],TGI (MOLT-4 leukemia) [µM]
COc1ccc(NC(=O)c2ccc(C(F)(F)F)nc2Nc2ccc(Cl)cc2C)cc1Cl,2.72 µM,10.7,5.39 µM,20.6,3.35,14.3,3.53 µM,15.4,3.84,17.4,6.47,23.9,10.7,23.9,9.01 µM,23.5,4.39,17.8,1.56,4.93
COc1ccc(/C=C/c2cc(OC)c(OC)c(OC)c2)cc1OC,,> 100,,> 100,,> 100,,> 100,,> 100,,> 100,,> 100,,> 100,,> 100,,> 100
O=C(O)c1nn(-c2ccc(Cl)cc2)c2c1C(=O)c1ccccc1C2=O,,> 100,,> 100,,> 100,,> 100,,> 100,,62.3,,> 100,,67.4,,> 100,,88
NC1=C(O)/C(=N/NS(=O)(=O)c2ccccc2)C(c2ccc3c(c2)OCO3)O1 (stereo not drawn),,> 100,,> 100,,> 100,,> 100,,> 100,,> 100,,> 100,,> 100,,> 100,,> 100
O=[N+]([O-])c1cc(I)cc(/C=N/NS(=O)(=O)c2ccc(F)cc2)c1O,,32.4,,> 100,,41.6,,40.9,,53.9,,66.3,,55.8,,55.8,,61,,57.7
Cn1cc(-c2ncnc3ccc(-c4cnc(Cl)c(NS(C)(=O)=O)c4)cc23)c2ccccc21,0.829 µM,13.1,0.814 µM,9.41,0.181,1.95,1.42 µM,> 100,0.687,> 62.7,0.127,1.98,0.791,> 22.6,0.656 µM,4.3,0.164,5,0.491,4.89
C=CCN=C1NC(=O)C(CC(=O)Nc2cccc(Cl)c2)S1 (stereo not drawn),,> 100,,> 100,,> 100,,> 100,,> 100,,> 100,,> 100,,> 100,,> 100,,> 100
NC(CCl)=NCC12CC3CC(CC(C3)C1)C2,1.15 µM,3.19,0.792 µM,15.7,0.918,4.08,0.391 µM,2.19,0.348,3.27,2.21,15.4,0.796,11.4,0.702 µM,11.2,0.74,15.8,0.333,1.73
O=C(N/N=C/c1ccc([N+](=O)[O-])cc1)c1ccccc1Nc1ccnc(C(F)(F)F)c1,18.2 µM,39.8,15.4 µM,66,13.3,38.3,12.5 µM,38.3,> 100,> 100,18.2,70.3,31.2,95.1,30.3 µM,> 100,16.6,59.6,5.33,40.5
CCC(CO)Nc1nc(NCc2ccccc2)c2n[nH]c(C(C)C)c2n1 (stereo not drawn),4.45 µM,17.1,12 µM,46.4,11.3,24.7,14.5 µM,34.1,6.55,52.6,11.4,25.4,13.9,31.8,12.7 µM,26.1,7.43,21.9,11.1,46.3
C[C@]1(c2nc3c(C(N)=O)cccc3[nH]2)CCCN1,72.8 µM and > 100 µM,> 100,> 65.8 µM and 74.9 µM,> 100,> 100,> 100,> 63 µM and 97.6 µM,> 100,> 100,> 100,> 100,> 100,> 100,> 100,79.7 µM and > 100 µM,> 100,> 92.8,> 100,> 100,> 100
Cc1cccc2c(=O)c3c(sc12)c(NCCCN)nc1ccccc13,1.56 µM,3.23,0.88 µM,2.45,1.6,3.06,1.57 µM,3.34,1.32,3.13,1.02,2.31,1.24,2.79,1.69 µM,3.09,1.06,2.29,1.35,3.06
N#Cc1c(N)c(C(=O)c2ccc3c(c2)OCCO3)n2c1CCCC2,1.82 µM,> 23.5,4.27 µM,> 100,5.99,> 100,0.58 µM,,3.15,> 100,1.8,7.48,3.48,> 100,2.38 µM,7.63,6.3,> 100,4.19,> 100
C/C(COc1ccc2oc(-c3ccccc3)cc(=O)c2c1)=N\O,11.8 µM,52.9,45.4 µM,> 100,16.8,81.4,> 100 µM,> 100,41.4,> 100,> 100,> 100,69.4,> 100,2.1 µM,5.8,11.2,> 100,89.2,> 100
CCCCCCCC(=O)Nc1nc2[nH]c(CN3CCN(Cc4cccc(I)c4)CC3)c(CN3CCN(Cc4cccc(I)c4)CC3)c2c(=O)[nH]1,0.972 µM,1.97,0.989 µM,1.91,0.901,1.66,0.901 µM,1.95,1.25,3.22,0.691,1.35,0.936,2.06,0.88 µM,1.61,0.717,1.41,0.934,2.59
CC[C@H](C)[C@H](NC(=O)c1ncccn1)C(=O)N(C)[C@H](C[C@@H](OC(C)=O)c1nc(C(=O)N[C@@H](Cc2ccccc2)C[C@H](C)C(=O)OC)cs1)C(C)C,1.01 µM,4.97,6.23 µM,> 25,0.848,> 25,1.01 µM,7.37,0.853,7.19,0.768,> 25,1.73,> 25,2.53 µM,11.9,6.01,> 25,2.39,> 25
Cc1ccccc1SC(/C=C/NNC1=NC(c2ccccc2)C(c2ccccc2)=NN1)c1ccccc1 (stereo not drawn),,> 100,,46.7,,> 100,,> 100,,94.4,,20.8,,49.4,,27.6,,48.6,,> 100
C#Cc1cccc(Nc2nc(C)nc3cc(NC(=O)CCl)ccc23)c1,3.26 µM,7.41,4.68 µM,8.66,1.01,3.81,0.454 µM,0.92,0.638,2.22,1.09,4.34,3.65,7.85,3.34 µM,6.6,3.24,6.74,0.719,2.27
COc1ccc(C2=NN(C(C)=O)c3nc4ccccc4nc3O2)cc1,,> 100,,> 100,,> 100,,63.8,,> 100,,21.7,,64,,43.1,,90.4,,> 100
Oc1cccc2ccc(SSc3ccc4cccc(O)c4n3)nc12,,35.2,,> 100,,39.4,,38.2,,> 100,,34.9,,39.9,,37.5,,83.9,,> 100
Oc1c(CN2CCCCC2)ccc2cccnc12,3.64 µM,15,3.72 µM,28.1,3.95,51.4,3.6 µM,10.9,3.21,> 100,5.67,74.3,3.75,54.3,4.89 µM,39.5,0.566,5.42,3.97,> 100
Oc1ccc(O)c(-n2cccn2)c1,,46.2,,> 100,,> 100,,34.7,,57,,> 100,,> 100,,> 100,,> 100,,59.5
O=c1cc(-c2ccccc2)oc2c(O)c(O)ccc12,18.3 µM,53.9,7.22 µM,91.5,13.8,66.4,8.27 µM,> 100,3.45,> 100,28.7,> 100,7.08,> 100,14.6 µM,> 100,3.02,29,5.09,> 100
COc1nc2c(c(=O)n1C)CN(c1ccccc1)C(=O)CN2C,40.6 µM,> 100,> 100 µM,> 100,45.8,> 100,96.7 µM,> 100,> 100,> 100,48.9,> 100,> 100,> 100,> 100 µM,> 100,5.73,> 100,33.9,> 100
COc1ccc(-c2oc3ncnc(N)c3c2-c2ccc(NC(=O)Nc3cc(C(F)(F)F)ccc3F)cc2)cc1,0.558 µM,1.45,0.762 µM,3.43,0.956,4.23,1.23 µM,4.28,0.934,11.8,1.51,4.35,0.953,3.38,1.55 µM,5.41,0.706,5.01,1.64,8.98
CCCC(=O)Oc1ccc(/C=N/NC(N)=S)nc1,,> 100,,> 100,,> 100,,> 100,,> 100,,> 100,,> 100,,> 100,,> 100,,> 100
CCOC(=O)NC(=O)c1cn(C2CCCCC2)c(=O)n(C)c1=O,,> 100,,> 100,,> 100,,> 100,,> 100,,> 100,,> 100,,> 100,,> 100,,> 100
CCCCCCCCCCNC(=S)OC,,,,> 100,,65,,58.7,,> 100,,> 100,,> 100,,> 100,,85.8,,30.8
COC(=O)[C@@H](C)C[C@H](Cc1ccc(F)cc1)NC(=O)c1csc([C@@H](C[C@H](C(C)C)N(C)C(=O)[C@@H](NC(=O)[C@H]2CCCCN2C)C2CC2)OC(C)=O)n1,0.184 µM,1.47,0.959 µM,> 25,0.137,> 25,0.0577 µM,0.213,0.153,> 25,0.174,> 25,0.559,> 25,0.408 µM,1.49,1.91,> 25,0.338,> 25
Cc1ccc(NC(=O)CCc2nnc3s/c(=C\C=C\c4ccccc4)c(=O)n23)cc1,,> 100,,> 100,,> 100,,> 100,,74.3,,> 100,,> 100,,> 100,,> 100,,79.8

# Reference: PubChem BioAssay (NCI)
